Target: T1, human GSDMD (full-length) (Homo sapiens, UniProt P57764)
T1 sequence (P57764 1-484): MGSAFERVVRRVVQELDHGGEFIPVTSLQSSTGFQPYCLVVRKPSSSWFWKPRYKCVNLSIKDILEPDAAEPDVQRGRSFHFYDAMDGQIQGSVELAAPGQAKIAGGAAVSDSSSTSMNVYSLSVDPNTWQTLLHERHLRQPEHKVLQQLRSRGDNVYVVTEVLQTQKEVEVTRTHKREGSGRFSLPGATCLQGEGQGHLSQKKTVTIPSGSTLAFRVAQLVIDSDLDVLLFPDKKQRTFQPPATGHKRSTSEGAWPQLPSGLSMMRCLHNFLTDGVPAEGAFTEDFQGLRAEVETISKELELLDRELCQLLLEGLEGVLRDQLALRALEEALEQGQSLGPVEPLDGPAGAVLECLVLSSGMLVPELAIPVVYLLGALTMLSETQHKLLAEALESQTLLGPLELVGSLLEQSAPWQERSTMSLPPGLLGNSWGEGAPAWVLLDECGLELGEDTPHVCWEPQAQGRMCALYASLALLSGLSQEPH
Test: Tb3+/DPA liposome leakage
Type: biochemical
Settings: covalent (Cys191); 1 h preincubation; cleavage by 0.15 µM caspase-11; no Cu(II)

CCN(CC)C(=S)SSC(=S)N(CC)CC [C-23, Tetraethylthiuram disulfide]
IC50: 300 ± 10 nM

Source: paper doi:10.1101/365908v1 (biorxiv, 2018)
